According to patent US9062024B2, “Nitrogen-containing heterocyclic compound and salt thereof, and a fungicide for agricultural and horticultural use” (Nippon Soda Co., Ltd., priority 2009, dated 2015):

SMILES	melting point [°C]
CC(=O)N1CCN=C(c2cnc3ccccc3c2)c2ccccc21	187 to 189
CC1(C)CCN=C(c2cnc3ccccc3c2)c2ccccc21 [Compound B2-25, 5,5-dimethyl-1-(3-quinolinyl)-4,5-dihydro-3H-2-benzazepine]	121 to 123
CC1(C)CN=C(c2cnc3ccccc3c2)c2ccccc2C1 [Compound B2-3, 4,4-dimethyl-1-(3-quinolinyl)-4,5-dihydro-3H-2-benzazepine]	115 to 116
c1ccc2c(c1)NCCN=C2c1cnc2ccccc2c1	201 to 202
